Source: ChEMBL document CHEMBL5252651, “Discovery of Bioactive Metabolites by Acidic Stress to a Geldanamycin Producer, Streptomyces samsunensis” (J Nat Prod, 2023)
Calls of active or inactive are those of the source. No cut-off for these calls is given here.

Test system: Staphylococcus aureus
Assay: Antivirulence activity against methicillin-resistant Staphylococcus aureus USA300 LAC assessed as change in Hla transcriptional level at 10 ug/ml incubated for 8 to 16 hrs by qRT-PCR analysis
Assay type: functional, organism-based
Details: dose 10.0 µg/ml, time 8-16 hrs

SMILES | Activity
COC1=C2C[C@@H](C)C[C@H](OC)[C@H](O)[C@@H](C)/C=C(\C)[C@H](OC(N)=O)[C@@H](OC)/C=C\C=C(/C)C(=O)NC(=CC1=O)C2=O | inactive
CO[C@@H](C[C@H](C)Cc1cc(O)cc(NC(C)=O)c1)[C@H](O)[C@H](C)C(=O)O | inactive
CO[C@H]1/C=C\C=C(/C)C(=O)NC2=CC(=O)C(O)=C(C[C@@H](C)C[C@H](OC)[C@H](O)[C@@H](C)/C=C(\C)[C@@H]1OC(N)=O)C2=O | inactive
